Tested on: 252836-082-R-J2-PDC tumor spheroids, viability
Assay: Anticancer human tumor 252836-082-R-J2-PDC patient-derived head and neck squamous cell carcinoma cell line growth inhibition [PI3K]
Conditions: spheroids with HUVEC and MSC; for IC50: curve of first compound; for viability, T/C: stronger effect = lower value
Description: Combinatorial screen of targeted agents with the PI3K inhibitors inavolisib, alpelisib, duvelisib, and copanlisib in multi-cell type tumor spheroids
A high-throughput screen of multi-cell type tumor spheroids was designed to identify active combinations of targeted small molecules and PI3K pathway inhibitors. Complex spheroids include a stromal component modeled by human endothelial cells (HUVEC) and fibroblasts modeled by human mesenchymal stem cells (MSCs). The concentration ranges selected for each drug and investigational agent were based upon clinically achievable concentrations if the clinical Cmax of the agent was known.
Compounds. The drugs and investigational agents: inavolisib (NSC800729), alpelisib (NSC765974), duvelisib (NSC772469), copanlisib (NSC816437), ipatasertib (NSC767898), afuresertib (NSC778305), talazoparib (NSC767125), sapanisertib (NSC764658), selumetinib (NSC741078), tovorafenib (DAY101, NSC766906), vemurafenib (NSC761431), ravoxertinib (NSC781343), sotorasib (NSC818433), MRTX1133 (NSC 836407), abemaciclib (NSC 768073), palbociclib (NSC758247), venetoclax (NSC 766270), SY5609 (NSC837396), enzalutamide (NSC755605), and darolutamide (NSC825331), were obtained from the National Cancer Institute (NCI) Developmental Therapeutics Program Chemical Repository. The FDA-approved anticancer drug set is available from the NCI Developmental Therapeutics Program. […] The stock solutions were prepared in dimethyl sulfoxide (DMSO, Sigma-Aldrich, St. Louis, MO, cat. D2650) at 800-fold the tested concentration and stored at -70 degrees C prior to their use. All drugs and investigational agents were tested over a range starting from a high concentration at or near the clinical Cmax and decreasing in half-log increments. If the clinical Cmax for an agent had not been determined, the highest concentration tested was 10 microM.
Cell Culture. All cells were maintained in an incubator at 37 degrees C and 5% CO2 with 95% humidity. The PDC lines were cultured according to standard operating procedures established by the NCI PDMR (https://pdmr.cancer.gov/sops/default.htm). All PDCs were thawed and cultured in Matrigel-coated flasks prepared with a working solution of 1X Ham's F-12 nutrient mix, without supplementation (Invitrogen, Waltham, MA, cat. 11765054), 100 U/mL penicillin-streptomycin (Invitrogen, cat. 15140122), and 2.5% Matrigel (Corning Inc., Corning, NY, cat. 354248) for the first three passages. The 354836-022-R-J1-PDC, 475296-252-R-J1-PDC, and 997726-040-R-J2-PDC lines were cultured in 6A media, which includes advanced DMEM/F-12 (Thermo Fisher Scientific, cat. 12634028), 10 mM HEPES (Thermo Fisher Scientific, cat. 15630080), 1X GlutaMAX supplement (Thermo Fisher Scientific, cat. 35050061), 0.1 mg/mL primocin (InvivoGen, San Diego, CA, cat. ant-pm-2), 10% defined fetal bovine serum, heat inactivated (HyClone Laboratories Inc., Logan, UT, cat. SH30070.03HI), 50% L-WRN conditioned media (ATCC, cat. CRL-3276), 1.25 mM N-Acetyl-L-cysteine (Sigma-Aldrich, cat. A9165), 10 mM nicotinamide (Sigma-Aldrich, cat. N0636), 1X B-27 supplement (Thermo Fisher Scientific, cat. 17504044), 1X N-2 supplement (Thermo Fisher Scientific, cat. 17502048), and 10 microM Y-27632 dihydrochloride (Tocris Bioscience, Bristol, United Kingdom, cat. 1254). The 624824-186-R-J2-PDC line was cultured in 6C/Colon 1B media, which includes all 6A media components plus 50 ng/mL human EGF recombinant protein (Thermo Fisher Scientific, cat. PHG0311). […]
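Also: spheroids exposed to agents for seven days before readout.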
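For viability, T/C in this document: percent of vehicle DMSO control viability so 100% = untreated growth.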

Cn1ncnc1[C@H]1c2n[nH]c(=O)c3cc(F)cc(c23)N[C@@H]1c1ccc(F)cc1 + CC(Nc1ccc2c(c1)OCCn1cc(N3C(=O)OCC3C(F)F)nc1-2)C(N)=O
IC50 (second compound 0.00316 µM): > 100 nM | IC50 (second compound 0.01 µM): > 100 nM | IC50 (second compound 0.0316 µM): > 100 nM | IC50 (second compound 0.1 µM): 46.7 nM | IC50 (second compound 0.316 µM): 6.75 nM | IC50 (second compound 1 µM): < 0.316 nM | viability, T/C (second compound 0.00316 µM, first compound 0.000316 µM): 97.7% | viability, T/C (second compound 0.00316 µM, first compound 0.001 µM): 86.2% | viability, T/C (second compound 0.00316 µM, first compound 0.00316 µM): 78.7% | viability, T/C (second compound 0.00316 µM, first compound 0.01 µM): 86.3% | viability, T/C (second compound 0.00316 µM, first compound 0.0316 µM): 79.2% | viability, T/C (second compound 0.00316 µM, first compound 0.1 µM): 57.5% | viability, T/C (second compound 0.01 µM, first compound 0.000316 µM): 85.6% | viability, T/C (second compound 0.01 µM, first compound 0.001 µM): 89.5% | viability, T/C (second compound 0.01 µM, first compound 0.00316 µM): 89% | viability, T/C (second compound 0.01 µM, first compound 0.01 µM): 84.5% | viability, T/C (second compound 0.01 µM, first compound 0.0316 µM): 72.8% | viability, T/C (second compound 0.01 µM, first compound 0.1 µM): 53% | viability, T/C (second compound 0.0316 µM, first compound 0.000316 µM): 85.9% | viability, T/C (second compound 0.0316 µM, first compound 0.001 µM): 93.6% | viability, T/C (second compound 0.0316 µM, first compound 0.00316 µM): 71.2% | viability, T/C (second compound 0.0316 µM, first compound 0.01 µM): 64.4% | viability, T/C (second compound 0.0316 µM, first compound 0.0316 µM): 72.6% | viability, T/C (second compound 0.0316 µM, first compound 0.1 µM): 50.3% | viability, T/C (second compound 0.1 µM, first compound 0.000316 µM): 67.9% | viability, T/C (second compound 0.1 µM, first compound 0.001 µM): 71.8% | viability, T/C (second compound 0.1 µM, first compound 0.00316 µM): 68.7% | viability, T/C (second compound 0.1 µM, first compound 0.01 µM): 59.5% | viability, T/C (second compound 0.1 µM, first compound 0.0316 µM): 54.3% | viability, T/C (second compound 0.1 µM, first compound 0.1 µM): 42.1% | viability, T/C (second compound 0.316 µM, first compound 0.000316 µM): 52.8% | viability, T/C (second compound 0.316 µM, first compound 0.001 µM): 58.1% | viability, T/C (second compound 0.316 µM, first compound 0.00316 µM): 57.6% | viability, T/C (second compound 0.316 µM, first compound 0.01 µM): 44% | viability, T/C (second compound 0.316 µM, first compound 0.0316 µM): 41% | viability, T/C (second compound 0.316 µM, first compound 0.1 µM): 30.8% | viability, T/C (second compound 1 µM, first compound 0.000316 µM): 50.6% | viability, T/C (second compound 1 µM, first compound 0.001 µM): 45.4% | viability, T/C (second compound 1 µM, first compound 0.00316 µM): 50.1% | viability, T/C (second compound 1 µM, first compound 0.01 µM): 36% | viability, T/C (second compound 1 µM, first compound 0.0316 µM): 31.9% | viability, T/C (second compound 1 µM, first compound 0.1 µM): 27.2%
